The values that follow come from patent publication US8337828B2, “Use of thymosin alpha 1, alone or in combination with PTX3 or ganciclovir, for the treatment of cytomegalovirus infection” (priority 2006, dated 2012).

Ends that are not written are not given here.

This assay deals with MCMV. Briefly: Viral replication in DC subsets (real-time PCR of MCMV gB transcripts). The class given is cell-based, BALB/c mice. The settings on record: 50 μg/ml for 2 h before infection, 48 h. The procedure: (FIG. 3a) CD11b+DC or pDC were generated from bone marrow of BALB/c mice, infected with MCMV and assessed for morphology by light microscopy and viral replication by real-time PCR of MCMV gB transcripts expression (both at 48 h) or for IRF7 nuclear expression by immunobloting with anti-IRF7 (2 h later). Cells were exposed (+) or not (−) to 50 μg/ml Thymosin alpha 1 for 2 h at 37° C. before infection. − represents uninfected cells. The results shown represent one representative experiment out of 3.
DC subset generation. DC were obtained by culturing 10^6/ml BALB/c bone marrow cells in Iscove's modified medium, containing 10% filtered bovine serum, 50 μM 2-mercaptoethanol, sodium pyruvate (1 mM), 2 mM L-glutamine, HEPES (10 mM), and 50 μg/ml gentamycin in the presence of 150 U/ml mouse rGM-CSF (Sigma) and 75 U/ml rIL-4 (R&D Systems) for 7 days to obtain CD11b+DC or 200 ng/ml FLT3-L (Immunex Corporation, Seattle, Wash.) for 9 days to obtain pDC. […]
Inhibition of viral replication. […] Infectivity was measured 48 h later.
Real time RT-PCR for quantification of MCMV mRNA. […]
For orientation: In qPCR the cycle at which signal appears reflects the starting amount.

On to “Ac-Ser-Asp-Ala-Ala-Val-Asp-Thr-Ser-Ser-Glu -Ile-Thr-Thr-Lys-Asp-Leu-Lys-Glu-Lys-Lys-Glu-Val-Glu-Glu-Ala-Glu-Asn-O (Ac-SDAAVDTSSEITTKDLKEKKEVEEAEN) [Thymosin alpha 1, acidic peptide present in thymus extract with immunoregulatory properties]”, for which the viral replication result runs as follows: (CD11b+DC) “not affected”; (pDC) “actually promoted”.
